Biological target: T1, human GRP receptor (BB2) (Homo sapiens, UniProt P30550)
T1 construct: expressed in transfected cells
Experiment: BB2 binding assay ([125I][Tyr4]bombesin, CHO-K1 cell membranes)
Settings: Table 3; N-acyl derivatives
Protocol: In the following experiments, measurement of BB1 and BB2 binding was as follows. […] The final pellet was resuspended in assay buffer to a final cell concentration of 1.5 × 10^5/mL. […] Nonspecific binding was defined by 1µM bombesin. […] Radioactivity bound was determined using a gamma counter.
All competition data was analysed using nonlinear regression utilizing iterative curve-plotting procedures in Prism® (GraphPad Software Inc., San Diego, USA).

T1 sequence (P30550 whole entry): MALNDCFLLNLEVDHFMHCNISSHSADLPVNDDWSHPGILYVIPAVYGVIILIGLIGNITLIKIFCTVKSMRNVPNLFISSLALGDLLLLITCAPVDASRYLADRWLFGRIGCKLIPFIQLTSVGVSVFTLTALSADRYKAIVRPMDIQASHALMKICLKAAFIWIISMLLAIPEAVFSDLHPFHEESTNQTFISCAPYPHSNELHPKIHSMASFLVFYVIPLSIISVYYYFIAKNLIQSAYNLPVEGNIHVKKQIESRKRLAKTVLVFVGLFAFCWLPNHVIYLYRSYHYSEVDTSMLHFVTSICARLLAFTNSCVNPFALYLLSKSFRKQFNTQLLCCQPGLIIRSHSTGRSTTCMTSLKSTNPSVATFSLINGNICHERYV

IC50, > 10 µM:
C[C@@](Cc1c[nH]c2ccccc12)(NC(=O)c1ccoc1)C(=O)NCC1(c2ccccn2)CCCCC1 [Example 59, Furan-3-carboxylic acid {(S)-2-(1H-indol-3-yl)-1-methyl-1-[(1-pyridin-2-yl-cyclohexylmethyl)-carbamoyl]-ethyl}-amide]
Cc1cc(C(=O)N[C@@](C)(Cc2c[nH]c3ccccc23)C(=O)NCC2(c3ccccn3)CCCCC2)no1 [Example 62, 5-Methyl-isoxazole-3-carboxylic acid {(S)-2-(1H-indol-3-yl)-1-methyl-1-[(1-pyridin-2-yl-cyclohexylmethyl)-carbamoyl]-ethyl}-amide]

Same assay, conditions: Table 5; N-terminal urethane derivatives

IC50, > 10 µM:
C[C@@](Cc1c[nH]c2ccccc12)(NC(=O)OCc1ccc2ncccc2c1)C(=O)NCC1(c2ccccn2)CCCCC1 [Example 110, {(S)-2-(1H-Indol-3-yl)-1-methyl-1-[(1-pyridin-2-yl-cyclohexylmethyl)-carbamoyl]-ethyl}-carbamic acid quinolin-6-ylmethyl ester]

Same assay, conditions: Table 7; N-terminal sulfonamide derivatives

IC50, > 10 µM:
C[C@@](Cc1c[nH]c2ccccc12)(NS(=O)(=O)c1ccc2ccccc2c1)C(=O)NCC1(c2ccccn2)CCCCC1 [Example 118, (S)-3-(1H-Indol-3-yl)-2-methyl-2-(naphthalene-2-sulfonylamino)-N-(1-pyridin-2-yl-cyclohexylmethyl)-propionamide]
C[C@@](Cc1c[nH]c2ccccc12)(NS(=O)(=O)c1cccc2nonc12)C(=O)NCC1(c2ccccn2)CCCCC1 [Example 139, (S)-2-(Benzo[1,2,5]oxadiazole-4-sulfonylamino)-3-(1H-indol-3-yl)-2-methyl-N-(1-pyridin-2-yl-cyclohexylmethyl)-propionamide]
C[C@@](Cc1c[nH]c2ccccc12)(NS(=O)(=O)c1ccc(OC(F)(F)F)cc1)C(=O)NCC1(c2ccccn2)CCCCC1 [Example 151, (S)-3-(1H-Indol-3-yl)-2-methyl-N-(1-pyridin-2-yl-cyclohexylmethyl)-2-(4-trifluoromethoxy-benzenesulfonylamino)-propion amide]
CN(C)c1cccc2c(S(=O)(=O)N[C@@](C)(Cc3c[nH]c4ccccc34)C(=O)NCC3(c4ccccn4)CCCCC3)cccc12 [Example 117, (S)-2-(5-Dimethylamino-naphthalene-1-sulfonylamino)-3-(1H-indol-3-yl)-2-methyl-N-(1-pyridin-2-yl-cyclohexylmethyl)-propionamide]
Cc1nc(S(=O)(=O)N[C@@](C)(Cc2c[nH]c3ccccc23)C(=O)NCC2(c3ccccn3)CCCCC2)cn1C [Example 144, (S)-2-(1,2-Dimethyl-1H-imidazole-4-sulfonylamino)-3-(1H-indol-3-yl)-2-methyl-N-(1-pyridin-2-yl-cyclohexylmethyl)-propionamide]
C[C@@](Cc1c[nH]c2ccccc12)(NS(=O)(=O)c1ccccc1F)C(=O)NCC1(c2ccccn2)CCCCC1 [Example 114, (S)-2-(2-Fluorobenzenesulfonylamino)-3-(1H-indol-3-yl)-2-methyl-N-(1-pyridin-2-yl-cyclohexylmethyl)-propionamide]
C[C@@](Cc1c[nH]c2ccccc12)(NS(=O)(=O)c1ccc([N+](=O)[O-])cc1)C(=O)NCC1(c2ccccn2)CCCCC1 [Example 123, (S)-3-(1H-Indol-3-yl)-2-methyl-2-(4-nitro-benzenesulfonylamino)-N-(1-pyridin-2-yl-cyclohexylmethyl)-propionamide]
COC(=O)c1ccccc1S(=O)(=O)N[C@@](C)(Cc1c[nH]c2ccccc12)C(=O)NCC1(c2ccccn2)CCCCC1 [Example 155, 2-{(S)-2-(1H-Indol-3-yl)-1-methyl-1-[(1-pyridin-2-yl-cyclohexylmethyl)-carbamoyl]-ethylsulfamoyl} -benzoic acid methyl ester]

— patent EP1333824B1, “TREATMENT OF SEXUAL DYSFUNCTION WITH BOMBESIN RECEPTOR ANTAGONISTS” (Warner-Lambert Company LLC, priority 2000, dated 2002)
